PMC11770272, “Surface immobilization of single atoms on heteroatom-doped carbon nanospheres through phenolic-mediated interfacial anchoring for highly efficient biocatalysis” (Chemical Science, 2025)

Test system: T1, natural horseradish peroxidase (HRP)
T1 construct: gene PRXC1A
Assay: steady-state kinetics, absorbance of oxidized TMB at […] nm
Format: biochemical, Armoracia rusticana
Details: H2O2 as co-substrate, HAc-NaAc buffer pH 3.6, 37 °C

## Cc1cc(-c2cc(C)c(N)c(C)c2)cc(C)c1N [TMB]
  Km: 1650 µM
